Measurements taken from patent US9896423B2, “Deuterium substituted 1-[2-(2,4-dimethyl-phenylsulfanyl)-phenyl]piperazine compound or derivatives thereof, and pharmaceutical composition and use thereof” (Jiangsu Jibeier Pharmaceutical Co. Ltd., priority 2014, dated 2018).
Where “and” joins values, the source holds several entries; their conditions need not be identical. Equal values may be shown once. Read-outs that look alike come from different tables or passages of the source.

Test: Pharmacokinetic test in rats, intravenous injection
Format: in vivo, SD rats
Conditions: for concentration at 0.25 h / concentration at 0.5 h / concentration at 1 h / concentration at 2 h / concentration at 3 h: Sprague-Dawley, intravenous, 2 mg/kg iv
Experimental: The preferred compound of the present disclosure was assessed in rats for its pharmacokinetic profile.
SD rats, male and female, weighing 150 to 250 g
Mobile phase: 10 mM ammonium formate aqueous solution:methanol=15:85
The ionization source was electrospray ionization source. The detection mode was positive mode. Multiple reaction monitoring (MRM) was used as the scanning mode. The ion reaction for the quantitative analysis was the following: m/z was 305.2\150.0 for XX, and 256.1\167.1 for diphenhydramine (the internal standard).
Four male SD rats were taken. The dosage was calculated as 5 mL/kg body weight and 2 mg/kg. XX or YY was dissolved in DMSO (3% of a total volume) and castor oil (3% of the total volume) was added to the solution, followed by agitating with a vortex mixer. Subsequently, saline was added to the mixture to the total volume to afford the intravenous injection for the rats. The injections were intravenously administered to four male SD rats. Blood from the rats' orbits was collected 3 min, 8 min, 15 min, 30 min, 1 hr, 2 hr, 3 hr, 4 hr, 6 hr, 9 hr, 12 hr and 24 hr later after the injection, respectively.
After the blood collection, the tubes were immediately gently turned upside down at least five times to ensure sufficient mixing, and placed on ice. Heparin was added for anticoagulation. The samples were centrifuged at 8000 rpm for 5 min to separate serum from erythrocyte. The serum was transferred with a pipettor to 2 mL polypropylene (PP) tubes, which were marked with the name of the compound and the time points, and stored in a refrigerator at −40° C. before LC-MS analysis. Samples with high concentrations were diluted with rat blank plasma.
2.5 μL of Meth-H2O and 5 μL of the internal standard solution (20 ng/mL, IS) were added to 50 μL of the plasma. Subsequently, 150 μL of methanol was added to the mixture to precipitate protein and the samples were then centrifuged at 13000 rpm for 5 min. The upper organic phase was taken out, filtrated with a 0.22 μM microporous membrane, and 2 μL of the sample was injected for the LC-MS analysis.

[1] = male, rat, plasma, 2 mg/kg, individual rats, read-out: Concentrations in Plasma of Rats after Intravenous Injection
[2] = male, rat, plasma, 2 mg/kg, mean, read-out: Concentrations in Plasma of Rats after Intravenous Injection, Mean ± SD
[3] = rats, iv 2 mg/kg, individual rats, 2 mg/kg

Compound: Cc1ccc(Sc2ccccc2N2CCNCC2)c(C)c1 [YY, 1-[2-(2,4-dimethyl-phenylsulfanyl)-phenyl]piperazine]
- AUC(0-inf) (male, SD, rat, plasma, iv, 2 mg/kg, rats, iv 2 mg/kg, XX n = 4, YY n = 3, read-out: AUC0-∞, Mean ± SD): 654 ± 23.9 ng·h/mL
- Cmax (male, SD, rat, plasma, iv, 2 mg/kg, rats, iv 2 mg/kg, XX n = 4, YY n = 3, read-out: Cmax, Mean ± SD): 214 ± 38.9 ng/mL
- MRT inf (male, SD, rat, plasma, iv, 2 mg/kg, rats, iv 2 mg/kg, XX n = 4, YY n = 3, read-out: MRT0-∞, Mean ± SD): 6.42 ± 0.19 h
- Vd (male, SD, rat, plasma, iv, 2 mg/kg, rats, iv 2 mg/kg, XX n = 4, YY n = 3, read-out: Vz, Mean ± SD): 26.6 ± 0.52 L/kg
- half-life (male, SD, rat, plasma, iv, 2 mg/kg, rats, iv 2 mg/kg, XX n = 4, YY n = 3, read-out: t1/2, Mean ± SD (converted)): 362 ± 16.2 min
- AUC(0-t) (male, SD, rat, plasma, iv, 2 mg/kg, rats, iv 2 mg/kg, individual rats 1-3 (Table 11), read-out: AUC0-t): 594 ng·h/mL
- AUC(0-inf) (male, SD, rat, plasma, iv, 2 mg/kg, rats, iv 2 mg/kg, individual rats, read-out: AUC0-∞): 628 ng·h/mL
- Cmax (male, SD, rat, plasma, iv, 2 mg/kg, rats, iv 2 mg/kg, individual rats, read-out: Cmax): 225 ng/mL
- MRT inf (male, SD, rat, plasma, iv, 2 mg/kg, rats, iv 2 mg/kg, individual rats, read-out: MRT0-∞): 6.56 h
- Vd (male, SD, rat, plasma, iv, 2 mg/kg, rats, iv 2 mg/kg, individual rats, read-out: Vz): 26.3 L/kg
- half-life (male, SD, rat, plasma, iv, 2 mg/kg, rats, iv 2 mg/kg, individual rats, read-out: t1/2 (converted)): 343 min
- AUC(0-t) (male, SD, rat, plasma, iv, 2 mg/kg, rats, iv 2 mg/kg, n = 3 (Table 11), read-out: AUC0-t, Mean ± SD): 619 ± 22.2 ng·h/mL
- concentration at 0.25 h [1]: 78.1 ng/mL
- concentration at 0.25 h [2]: 137 ± 6.05 ng/mL
- concentration at 0.5 h [1]: 76.6 ng/mL
- concentration at 0.5 h [2]: 124 ± 13 ng/mL
- concentration at 1 h [1]: 72.2 ng/mL
- concentration at 1 h [2]: 94.2 ± 6.06 ng/mL
- concentration at 2 h [1]: 60.7 ng/mL
- concentration at 2 h [2]: 86.4 ± 16.8 ng/mL
- concentration at 3 h [1]: 49.6 ng/mL
- concentration at 3 h [2]: 67 ± 10.2 ng/mL
- CL, Mean ± SD (rats, iv 2 mg/kg, XX n = 4, YY n = 3): 3.06 ± 0.11 L/h/k
- AUC(0-t) (rats, iv 2 mg/kg, individual rats 1-3 (Table 11), 2 mg/kg): 637.9 ng·h/mL and 624.3 ng·h/mL
- AUC0-∞ [3]: 674.6 µg·h/L and 660.5 µg·h/L
- CL [3]: 3.19 L/h/k and 2.97 L/h/k and 3.03 L/h/k
- Cmax [3]: 246.0 ng/mL and 170.6 ng/mL
- MRT0-∞ [3]: 6.20 h and 6.50 h
- Vz [3]: 27.2 L/kg
- t1/2 [3]: 6.15 h and 6.22 h
